Experimental data taken from patent publication US12043612B2, “Methods of manufacturing a bifunctional compound, ultrapure forms of the bifunctional compound, and dosage forms comprising the same” (Arvinas Operations, Inc., priority 2020, dated 2024).

Experiment: Exploratory stability study on Compound A drug substance (HPLC, water content, XRPD)
Format: physicochemical
Set-up: Water Content: unit: wt %
Procedure: This is a reverse phase high performance liquid chromatography (HPLC) method devised to determine the assay and impurity profile of Compound A for release and stability testing. The method was qualified for its intended uses. Forced degradation studies were performed and used to qualify this method as stability indicating. The HPLC parameters are listed below in Table 6.
An exploratory stability study on Compound A is on-going. The stability of Compound A will be studied at 5° C., 25° C./60% RH, and 40° C./75% RH with sampling points at 1, 2, 3, and 6 months. Samples will be analyzed using the stability indicating method TEST-05187 (high performance liquid chromatography (HPLC)).
The critical quality attributes of the drug substance Compound A that will be monitored are appearance, purity, assay (wt %), impurities, water content, and x-ray powder diffraction (XRPD). The container and closure system for the stability study consists of double plastic (PE) bags placed inside an high-density polyethylene (HDPE) container.

[1] = Initial Date (about 3 months after date of manufacture)
[2] = Storage at 5° C. +/− 3° C., Initial Date + 1 Month
[3] = Storage at 5° C. +/− 3° C., Initial Date + 2 Months
[4] = Storage at 25° C. ± 2° C./60% RH ± 5%, Initial Date + 1 Month
[5] = Storage at 25° C. ± 2° C./60% RH ± 5%, Initial Date + 2 Months
[6] = Storage at 40° C. ± 2° C./75% RH ± 5%, Initial Date + 1 Month
[7] = Storage at 40° C. ± 2° C./75% RH ± 5%, Initial Date + 2 Months

## N#Cc1ccc(O[C@H]2CC[C@H](NC(=O)c3ccc(N4CCC(CN5CCN(c6cc7c(cc6F)C(=O)N(C6CCC(=O)NC6=O)C7=O)CC5)CC4)nn3)CC2)cc1Cl (stereo partly shown) [Compound A, N-[(1r,4r)-4-(3-chloro-4-cyanophenoxy)cyclohexyl]-6-[4-({4-[2-(2,6-dioxopiperidin-3-yl)-6-fluoro-1,3-dioxo-2,3-dihydro-1H-isoindol-5-yl]piperazin-1-yl}methyl)piperidin-1-yl]pyridazine-3-carboxamide]
At Date of Manufacture
  Appearance: Yellow
  HPLC Assay (wt %): 97.7 wt %
  HPLC Impurities (%) RRT 0.50 (Intermediate 5): 0.06%
  HPLC Impurities (%) RRT 0.89: 0.07%
  HPLC Impurities (%) RRT 0.90: ND (ND = <_0.02%)
  HPLC Impurities (%) RRT 0.92: 0.07%
  HPLC Impurities (%) RRT 0.94: ND (ND = <_0.02%)
  HPLC Impurities (%) RRT 0.96 (Intermediate 2): 0.16%
  HPLC Impurities (%) RRT 1.02: 0.39%
  HPLC Impurities (%) RRT 1.04 (Intermediate 3): 0.12%
  HPLC Impurities (%) RRT 1.05 (Impurity 1): <QL (QL = 0.05%)
  HPLC Impurities (%) RRT 1.07: 0.19%
  HPLC Impurities (%) RRT 1.23: 0.06%
  HPLC Impurities (%) RRT 1.32: ND (ND = <_0.02%)
  HPLC Impurities (%) RRT 1.36 (Intermediate 9): 0.05%
  HPLC Impurities (%) RRT 1.39: 0.67%
  HPLC Impurities (%) RRT 1.54: ND (ND = <_0.02%)
  HPLC Purity (%): 98.0%
  Total Impurities (%): 2.0%
  Water Content: 0.27
  Water Content (wt %): 0.27 wt %
  XRPD: Crystalline
[1]
  Appearance: Yellow
  HPLC Assay (wt %): 99.5 wt %
  HPLC Impurities (%) RRT 0.50 (Intermediate 5): 0.06%
  HPLC Impurities (%) RRT 0.89: 0.08%
  HPLC Impurities (%) RRT 0.90: <QL (QL = 0.05%)
  HPLC Impurities (%) RRT 0.92: 0.06%
  HPLC Impurities (%) RRT 0.94: ND (ND = <_0.02%)
  HPLC Impurities (%) RRT 0.96 (Intermediate 2): 0.18%
  HPLC Impurities (%) RRT 1.02: 0.38%
  HPLC Impurities (%) RRT 1.04 (Intermediate 3): 0.11%
  HPLC Impurities (%) RRT 1.05 (Impurity 1): ND (ND = <_0.02%)
  HPLC Impurities (%) RRT 1.07: 0.15%
  HPLC Impurities (%) RRT 1.23: 0.06%
  HPLC Impurities (%) RRT 1.32: ND (ND = <_0.02%)
  HPLC Impurities (%) RRT 1.36 (Intermediate 9): ND (ND = <_0.02%)
  HPLC Impurities (%) RRT 1.39: 0.45%
  HPLC Impurities (%) RRT 1.54: <QL (QL = 0.05%)
  HPLC Purity (%): 98.4%
  Total Impurities (%): 1.3%
  Water Content: 0.86
  Water Content (wt %): 0.86 wt %
  XRPD: Crystalline
[2]
  Appearance: Yellow
  HPLC Assay (wt %): 97.4 wt %
  HPLC Impurities (%) RRT 0.50 (Intermediate 5): 0.05%
  HPLC Impurities (%) RRT 0.89: 0.07%
  HPLC Impurities (%) RRT 0.90: <QL (QL = 0.05%)
  HPLC Impurities (%) RRT 0.92: <QL (QL = 0.05%)
  HPLC Impurities (%) RRT 0.94: ND (ND = <_0.02%)
  HPLC Impurities (%) RRT 0.96 (Intermediate 2): 0.18%
  HPLC Impurities (%) RRT 1.02: 0.33%
  HPLC Impurities (%) RRT 1.04 (Intermediate 3): 0.09%
  HPLC Impurities (%) RRT 1.05 (Impurity 1): ND (ND = <_0.02%)
  HPLC Impurities (%) RRT 1.07: 0.15%
  HPLC Impurities (%) RRT 1.23: 0.05%
  HPLC Impurities (%) RRT 1.32: ND (ND = <_0.02%)
  HPLC Impurities (%) RRT 1.36 (Intermediate 9): <QL (QL = 0.05%)
  HPLC Impurities (%) RRT 1.39: 0.58%
  HPLC Impurities (%) RRT 1.54: <QL (QL = 0.05%)
  HPLC Purity (%): 98.4%
  Total Impurities (%): 1.5%
  Water Content (wt %): 0.85 wt %
  XRPD: Crystalline
[3]
  Appearance: Yellow
  HPLC Assay (wt %): 97.4 wt %
  HPLC Impurities (%) RRT 0.50 (Intermediate 5): 0.05%
  HPLC Impurities (%) RRT 0.89: 0.07%
  HPLC Impurities (%) RRT 0.90: <QL (QL = 0.05%)
  HPLC Impurities (%) RRT 0.92: 0.06%
  HPLC Impurities (%) RRT 0.94: <QL (QL = 0.05%)
  HPLC Impurities (%) RRT 0.96 (Intermediate 2): 0.17%
  HPLC Impurities (%) RRT 1.02: 0.29%
  HPLC Impurities (%) RRT 1.04 (Intermediate 3): <QL (QL = 0.05%)
  HPLC Impurities (%) RRT 1.05 (Impurity 1): ND (ND = <_0.02%)
  HPLC Impurities (%) RRT 1.07: 0.15%
  HPLC Impurities (%) RRT 1.23: <QL (QL = 0.05%)
  HPLC Impurities (%) RRT 1.32: 0.05%
  HPLC Impurities (%) RRT 1.36 (Intermediate 9): <QL (QL = 0.05%)
  HPLC Impurities (%) RRT 1.39: 0.61%
  HPLC Impurities (%) RRT 1.54: <QL (QL = 0.05%)
  HPLC Purity (%): 98.4%
  Total Impurities (%): 1.5%
  Water Content (wt %): 1.0 wt %
  XRPD: Crystalline
[4]
  Appearance: Yellow
  HPLC Assay (wt %): 97.3 wt %
  HPLC Impurities (%) RRT 0.50 (Intermediate 5): 0.05%
  HPLC Impurities (%) RRT 0.89: 0.07%
  HPLC Impurities (%) RRT 0.90: <QL (QL = 0.05%)
  HPLC Impurities (%) RRT 0.92: 0.07%
  HPLC Impurities (%) RRT 0.94: ND (ND = <0.02%)
  HPLC Impurities (%) RRT 0.96 (Intermediate 2): 0.18%
  HPLC Impurities (%) RRT 1.02: 0.34%
  HPLC Impurities (%) RRT 1.04 (Intermediate 3): 0.07%
  HPLC Impurities (%) RRT 1.05 (Impurity 1): ND (ND = <0.02%)
  HPLC Impurities (%) RRT 1.07: 0.15%
  HPLC Impurities (%) RRT 1.23: 0.05%
  HPLC Impurities (%) RRT 1.32: ND (ND = <0.02%)
  HPLC Impurities (%) RRT 1.36 (Intermediate 9): <QL (QL = 0.05%)
  HPLC Impurities (%) RRT 1.39: 0.57%
  HPLC Impurities (%) RRT 1.54: <QL (QL = 0.05%)
  HPLC Purity (%): 98.3%
  Total Impurities (%): 1.6%
  Water Content: 0.93
  XRPD: Crystalline
[5]
  Appearance: Yellow
  HPLC Assay (wt %): 97.5 wt %
  HPLC Impurities (%) RRT 0.50 (Intermediate 5): 0.05%
  HPLC Impurities (%) RRT 0.89: 0.07%
  HPLC Impurities (%) RRT 0.90: <QL (QL = 0.05%)
  HPLC Impurities (%) RRT 0.92: 0.06%
  HPLC Impurities (%) RRT 0.94: <QL (QL = 0.05%)
  HPLC Impurities (%) RRT 0.96 (Intermediate 2): 0.17%
  HPLC Impurities (%) RRT 1.02: 0.28%
  HPLC Impurities (%) RRT 1.05 (Impurity 1): ND (ND = <0.02%)
  HPLC Impurities (%) RRT 1.07: 0.15%
  HPLC Impurities (%) RRT 1.23: 0.05%
  HPLC Impurities (%) RRT 1.32: <QL (QL = 0.05%)
  HPLC Impurities (%) RRT 1.36 (Intermediate 9): ND (ND = <0.02%)
  HPLC Impurities (%) RRT 1.39: 0.65%
  HPLC Impurities (%) RRT 1.54: <QL (QL = 0.05%)
  HPLC Purity (%): 98.3%
  Total Impurities (%): 1.5%
  Water Content: 1.2
  XRPD: Crystalline
[6]
  Appearance: Yellow
  HPLC Assay (wt %): 97.3 wt %
  HPLC Impurities (%) RRT 0.50 (Intermediate 5): 0.05%
  HPLC Impurities (%) RRT 0.89: 0.06%
  HPLC Impurities (%) RRT 0.90: <QL (QL = 0.05%)
  HPLC Impurities (%) RRT 0.92: 0.07%
  HPLC Impurities (%) RRT 0.94: ND (ND = <0.02%)
  HPLC Impurities (%) RRT 0.96 (Intermediate 2): 0.18%
  HPLC Impurities (%) RRT 1.02: 0.34%
  HPLC Impurities (%) RRT 1.04 (Intermediate 3): 0.08%
  HPLC Impurities (%) RRT 1.05 (Impurity 1): ND (ND = <0.02%)
  HPLC Impurities (%) RRT 1.07: 0.14%
  HPLC Impurities (%) RRT 1.23: 0.05%
  HPLC Impurities (%) RRT 1.32: ND (ND = <0.02%)
  HPLC Impurities (%) RRT 1.36 (Intermediate 9): <QL (QL = 0.05%)
  HPLC Impurities (%) RRT 1.39: 0.58%
  HPLC Impurities (%) RRT 1.54: <QL (QL = 0.05%)
  HPLC Purity (%): 98.3%
  Total Impurities (%): 1.6%
  Water Content: 1.0
  XRPD: Crystalline
[7]
  Appearance: Yellow
  HPLC Assay (wt %): 97.2 wt %
  HPLC Impurities (%) RRT 0.50 (Intermediate 5): 0.06%
  HPLC Impurities (%) RRT 0.89: 0.06%
  HPLC Impurities (%) RRT 0.90: <QL (QL = 0.05%)
  HPLC Impurities (%) RRT 0.92: 0.07%
  HPLC Impurities (%) RRT 0.94: <QL (QL = 0.05%)
  HPLC Impurities (%) RRT 0.96 (Intermediate 2): 0.18%
  HPLC Impurities (%) RRT 1.02: 0.28%
  HPLC Impurities (%) RRT 1.04 (Intermediate 3): <QL (QL = 0.05%)
  HPLC Impurities (%) RRT 1.05 (Impurity 1): ND (ND = <0.02%)
  HPLC Impurities (%) RRT 1.07: 0.14%
  HPLC Impurities (%) RRT 1.23: 0.06%
  HPLC Impurities (%) RRT 1.32: <QL (QL = 0.05%)
  HPLC Impurities (%) RRT 1.36 (Intermediate 9): ND (ND = <0.02%)
  HPLC Impurities (%) RRT 1.39: 0.63%
  HPLC Impurities (%) RRT 1.54: <QL (QL = 0.05%)
  HPLC Purity (%): 98.3%
  Total Impurities (%): 1.5%
  Water Content: 1.3
  XRPD: Crystalline
After 2 months at all temperature stations
  change in impurities and solid properties: no increase in impurities nor change in solid properties
After 5 months from the date of manufacture
  change in impurities and solid properties: no increase in impurities or change in solid properties
Stability study, all temperature stations
  change in water content: small increase in the water content
